Assay results: ChEMBL document CHEMBL1152007, “The synthesis and CCK receptor affinities of selected carboyxlic acid mimics of CI-988 - a potent and selective CCK-B antagonist” (Bioorg Med Chem Lett, 1992)

Legend:
[1] = Dissociation constant, pKa was determined; format: physicochemical
[2] = molecular target: T1, Cholecystokinin receptor type A (Rattus norvegicus, UniProt P30551); assay: The concentration (nM) producing half-maximal inhibition of specific binding of [1251] Bolton Hunter CCK-8 to CCK receptors in the rat pancreas (CCK-A);value ranges from 620 to 770
T1 sequence (P30551 whole entry): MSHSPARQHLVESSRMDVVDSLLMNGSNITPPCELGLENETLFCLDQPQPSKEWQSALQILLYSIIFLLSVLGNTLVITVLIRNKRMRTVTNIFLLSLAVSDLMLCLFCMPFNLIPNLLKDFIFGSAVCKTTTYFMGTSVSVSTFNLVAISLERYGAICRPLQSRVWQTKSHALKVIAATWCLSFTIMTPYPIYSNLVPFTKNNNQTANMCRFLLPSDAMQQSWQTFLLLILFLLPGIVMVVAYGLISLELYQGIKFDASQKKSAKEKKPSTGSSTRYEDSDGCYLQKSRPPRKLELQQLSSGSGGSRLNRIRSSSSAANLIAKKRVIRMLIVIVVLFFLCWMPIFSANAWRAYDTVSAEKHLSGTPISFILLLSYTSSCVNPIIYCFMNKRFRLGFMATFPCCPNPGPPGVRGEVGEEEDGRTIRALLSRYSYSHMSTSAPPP

[3] = molecular target: T2, Gastrin/cholecystokinin type B receptor (Mus musculus, UniProt P56481); assay: The concentration (nM) producing half-maximal inhibition of specific binding of [1251] Bolton Hunter CCK-8 to CCK receptors in the mouse cerebral cortex (CCK-B);value ranges from 62 to 98; format: tissue-based
T2 sequence (P56481 whole entry): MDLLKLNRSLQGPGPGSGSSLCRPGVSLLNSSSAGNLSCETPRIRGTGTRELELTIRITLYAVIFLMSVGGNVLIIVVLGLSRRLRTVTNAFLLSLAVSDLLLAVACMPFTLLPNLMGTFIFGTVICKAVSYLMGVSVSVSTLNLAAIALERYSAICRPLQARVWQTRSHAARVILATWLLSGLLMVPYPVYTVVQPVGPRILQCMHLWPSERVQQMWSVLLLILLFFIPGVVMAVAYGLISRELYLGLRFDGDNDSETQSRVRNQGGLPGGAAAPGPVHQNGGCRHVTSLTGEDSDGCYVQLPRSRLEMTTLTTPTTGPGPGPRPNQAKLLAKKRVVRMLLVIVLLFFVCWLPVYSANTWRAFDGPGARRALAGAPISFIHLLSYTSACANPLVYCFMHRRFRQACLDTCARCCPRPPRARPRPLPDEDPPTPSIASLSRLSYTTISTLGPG

[4] = molecular target: T1, Cholecystokinin receptor type A; assay: The concentration (nM) producing half-maximal inhibition of specific binding of [1251] Bolton Hunter CCK-8 to CCK receptors in the rat pancreas (CCK-A); value ranges from 1000 to 1100
[5] = molecular target: T2, Gastrin/cholecystokinin type B receptor; assay: The concentration (nM) producing half-maximal inhibition of specific binding of [1251] Bolton Hunter CCK-8 to CCK receptors in the mouse cerebral cortex (CCK-B);value ranges from 3.0 to 8.1; format: tissue-based
[6] = molecular target: T2, Gastrin/cholecystokinin type B receptor; assay: The concentration (nM) producing half-maximal inhibition of specific binding of [1251] Bolton Hunter CCK-8 to CCK receptors in the mouse cerebral cortex (CCK-B);value ranges from 63 to 170; format: tissue-based
[7] = molecular target: T1, Cholecystokinin receptor type A; assay: The concentration (nM) producing half-maximal inhibition of specific binding of [1251] Bolton Hunter CCK-8 to CCK receptors in the rat pancreas (CCK-A); value ranges from 680 to 970
[8] = Dissociation constant, pKa was determined; experiment 2; format: physicochemical
[9] = molecular target: T2, Gastrin/cholecystokinin type B receptor; assay: The concentration (nM) producing half-maximal inhibition of specific binding of [1251] Bolton Hunter CCK-8 to CCK receptors in the mouse cerebral cortex (CCK-B);value ranges from 22 to 24; format: tissue-based
[10] = Dissociation constant, pKa was determined; experiment 1; format: physicochemical
[11] = molecular target: T1, Cholecystokinin receptor type A; assay: The concentration (nM) producing half-maximal inhibition of specific binding of [1251] Bolton Hunter CCK-8 to CCK receptors in the rat pancreas (CCK-A);value ranges from 2300 to 3500
[12] = molecular target: T1, Cholecystokinin receptor type A; assay: The concentration (nM) producing half-maximal inhibition of specific binding of [1251] Bolton Hunter CCK-8 to CCK receptors in the rat pancreas (CCK-A);value ranges from 900 to 1900
[13] = molecular target: T2, Gastrin/cholecystokinin type B receptor; assay: The concentration (nM) producing half-maximal inhibition of specific binding of [1251] Bolton Hunter CCK-8 to CCK receptors in the mouse cerebral cortex (CCK-B);value ranges from 8.6 to 32; format: tissue-based
[14] = molecular target: T1, Cholecystokinin receptor type A; assay: The concentration (nM) producing half-maximal inhibition of specific binding of [1251] Bolton Hunter CCK-8 to CCK receptors in the rat pancreas (CCK-A);value ranges from 1100 to 1500
[15] = molecular target: T2, Gastrin/cholecystokinin type B receptor; assay: The concentration (nM) producing half-maximal inhibition of specific binding of [1251] Bolton Hunter CCK-8 to CCK receptors in the mouse cerebral cortex (CCK-B);value ranges from 5.3 to 7.7; format: tissue-based

Work on C[C@@](Cc1c[nH]c2ccccc12)(NC(=O)OC1C2CC3CC(C2)CC1C3)C(=O)NC[C@H](NC(=O)CCC(=O)O)c1ccccc1 (stereo not given in full) yielded a pKa [1] of 5.6.

Work on CC(Cc1c[nH]c2ccccc12)(NC(=O)OC1C2CC3CC(C2)CC1C3)C(=O)NC[C@H](NC(=O)CCNS(=O)(=O)C(F)(F)F)c1ccccc1 (single isomer, unassigned) yielded a pKa [1] of 7.9, an IC50 [2] of 680 nM and an IC50 [3] of 77 nM.

CC(Cc1c[nH]c2ccccc12)(NC(=O)OC1C2CC3CC(C2)CC1C3)C(=O)NC[C@H](NC(=O)CCc1nnn[nH]1)c1ccccc1 (single isomer, unassigned) gave an IC50 [4] of 1070 nM, a pKa [1] of 5.4 and an IC50 [5] of 5.6 nM.

With CC(Cc1c[nH]c2ccccc12)(NC(=O)OC1C2CC3CC(C2)CC1C3)C(=O)NC[C@H](NC(=O)CCNC(=O)C(F)(F)F)c1ccccc1 (single isomer, unassigned) the IC50 [6] was 89 nM, the pKa [1] was > 9.5 and the IC50 [7] was 800 nM.

CC(Cc1c[nH]c2ccccc12)(NC(=O)OC1C2CC3CC(C2)CC1C3)C(=O)NC[C@H](NC(=O)CCP(=O)(O)O)c1ccccc1 (single isomer, unassigned) showed a pKa [8] of 7.8, an IC50 [9] of 23 nM and a pKa [10] of 3.4. It also gave an IC50 [11] of 2700 nM.

For CC(Cc1c[nH]c2ccccc12)(NC(=O)OC1C2CC3CC(C2)CC1C3)C(=O)NC[C@H](NC(=O)CCC(=O)NO)c1ccccc1 (single isomer, unassigned), the IC50 [12] was 1800 nM, the pKa [1] was > 9.5 and the IC50 [13] was 14 nM.

With CC(Cc1c[nH]c2ccccc12)(NC(=O)OC1C2CC3CC(C2)CC1C3)C(=O)NC[C@H](NC(=O)CCC(=O)Nc1nn[nH]n1)c1ccccc1 (single isomer, unassigned) the IC50 [14] was 1200 nM, the IC50 [15] was 6.3 nM and the pKa [1] was 5.2.
